These results are taken from ChEMBL document CHEMBL1135250, “Identification of a novel, orally bioavailable histamine H(3) receptor antagonist based on the 4-benzyl-(1H-imidazol-4-yl) template” (Bioorg Med Chem Lett, 2002).

A short description of series [1]: Compound at a dose 3 mg/kg was administered to monkey and was evaluated for half life after administration into monkey at 3 mg/kg. The class given is ADME, organism-based. The note with it: cercopithecidae, in vivo.
Series [2] can be described thus: Pharmacokinetic parameter Cmax was measured after administration into monkey at 3 mg/kg. The format is ADME, organism-based. Also on record: dose 3 mg/kg. The note with it: cercopithecidae, in vivo, read-out: AUC.
Series [3] is described as follows: Pharmacokinetic parameter area under curve (AUC) was measured after administration into rat at 10 mg/kg. Conditions: in vivo. The class given is ADME, organism-based. Also noted: dose 10 mg/kg.
The target of series [4] is T1, Alpha-2A adrenergic receptor (Homo sapiens) (UniProt P08913).
T1 sequence (whole entry): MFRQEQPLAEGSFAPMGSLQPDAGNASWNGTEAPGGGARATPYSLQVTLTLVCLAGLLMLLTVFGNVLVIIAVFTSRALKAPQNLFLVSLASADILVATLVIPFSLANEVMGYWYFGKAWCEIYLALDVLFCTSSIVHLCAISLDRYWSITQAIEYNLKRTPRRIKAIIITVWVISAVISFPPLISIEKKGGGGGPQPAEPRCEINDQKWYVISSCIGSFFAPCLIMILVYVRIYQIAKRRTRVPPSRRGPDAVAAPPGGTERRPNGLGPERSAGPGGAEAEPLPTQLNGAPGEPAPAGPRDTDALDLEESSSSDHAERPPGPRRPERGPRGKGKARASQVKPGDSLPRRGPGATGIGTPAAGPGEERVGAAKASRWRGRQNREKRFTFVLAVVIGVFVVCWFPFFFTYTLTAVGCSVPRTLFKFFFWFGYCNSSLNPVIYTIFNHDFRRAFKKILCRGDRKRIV
Kind of series: Antagonistic activity towards Alpha-2A adrenergic receptor was calculated. The class given is functional.

A short description of series [5]: Antagonistic activity towards dopamine uptake was calculated. The format is functional.
Series [6] can be described thus: Pharmacokinetic parameter Cmax was measured after administration into rat at 10 mg/kg. Conditions: in vivo. The class given is ADME, organism-based. Also noted: dose 10 mg/kg.
Another series deals with Cercopithecidae. Put plainly: Pharmacokinetic parameter area under curve (AUC) was measured after administration into monkey at 3 mg/kg. The note with it: in vivo.
A short description of series [7]: Compound at a dose 10 mg/kg was administered to rat and was evaluated for bioavailability after administration into rat at 10 mg/kg. The note with it: in vivo, read-out: Bioavailabiility.
A further series has as its target Histamine H3 receptor (Cavia porcellus, UniProt Q9JI35). Kind of series: (§1) Compound was evaluated for its binding affinity against Histamine H3 receptor of guinea pig brain membrane.
The next series deals with Cavia porcellus. Kind of series: Effective dose was reported after intravenous administration to guinea pig. The class given is functional.
Series [8] has as its target Histamine H3 receptor (Cavia porcellus) (UniProt Q9JI35). Kind of series: Compound was evaluated for its binding affinity against Histamine H3 receptor of guinea pig brain membrane, less then 50% inhibition when screened at 1 ug/mL.
The target is the same in series [9]. Put plainly: Compound was evaluated for its binding affinity against Histamine H3 receptor of guinea pig brain membrane less then 50% inhibition when screened at 1 ug/mL.
The target is the same in series [10]. Kind of series: Compound was evaluated for its inhibitory activity against Histamine H3 receptor of guinea pig brain membrane at a concentration of 1 ug/mL.
Series [11] has the same target. Described as §1. The note with it: concentration not given here.

Chain of Histamine H3 receptor (Cavia porcellus) (Q9JI35 whole entry): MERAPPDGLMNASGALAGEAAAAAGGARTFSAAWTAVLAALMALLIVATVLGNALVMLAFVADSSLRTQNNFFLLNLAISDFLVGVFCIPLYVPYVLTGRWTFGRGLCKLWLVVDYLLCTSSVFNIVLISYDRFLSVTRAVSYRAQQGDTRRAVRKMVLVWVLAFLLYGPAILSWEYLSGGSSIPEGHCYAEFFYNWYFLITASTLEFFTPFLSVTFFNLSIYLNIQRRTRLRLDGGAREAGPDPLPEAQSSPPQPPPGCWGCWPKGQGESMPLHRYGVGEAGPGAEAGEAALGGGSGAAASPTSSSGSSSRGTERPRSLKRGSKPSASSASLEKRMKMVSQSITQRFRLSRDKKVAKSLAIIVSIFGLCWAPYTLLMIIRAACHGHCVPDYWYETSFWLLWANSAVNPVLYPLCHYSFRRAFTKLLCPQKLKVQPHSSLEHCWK
Chain of Histamine H3 receptor (Q9JI35 whole entry): as above

In the case of `O=C(NCc1ccc(Cc2c[nH]cn2)cc1)Nc1cc(Cl)cc(Cl)c1`, in series [1], the half-life was 4.4 h. For the same compound, the Cmax in series [2] and in series [6] was 1700 ng/mL in each case. For the same compound, the values for the AUC (in series [3]; with Cercopithecidae) were 18100 ng·h/mL and 12600 ng·h/mL, respectively. The values for the Concentration in [4] and in [5] were 207 nM and 805 nM, respectively. The bioavailability in series [7] is 44%.

Compound `CN(Cc1ccc(Cc2cnc[nH]2)cc1)C(=O)N(C)c1cc(Cl)cc(Cl)c1` had a Ki at Histamine H3 receptor of 370 nM.

In the case of `O=C(NCc1ccc(Cc2c[nH]cn2)cc1)NCc1cc(C(F)(F)F)cc(C(F)(F)F)c1`, the Ki at Histamine H3 receptor was determined as 90 nM.

In turn, `N=C(NCc1ccc(Cl)cc1)c1ccc(Cc2c[nH]cn2)cc1` came in with an ED50 with Cavia porcellus of 0.3 mg/kg.

`NC(=O)NCc1ccc(Cc2c[nH]cn2)cc1`: the inhibition in [8] was under 50%.

`O=C(NCc1ccccc1)NCc1ccc(Cc2c[nH]cn2)cc1` registered an inhibition in series [9] of under 50%.

For the compound `O=C(NCc1ccc(Cc2c[nH]cn2)cc1)Nc1cccnc1`, the Ki at Histamine H3 receptor stood at 270 nM.

For `O=C(Nc1ccc(Cc2c[nH]cn2)cc1)Nc1cc(Cl)cc(Cl)c1`, the inhibition in series [10] was 36%.

As for `O=C(NCc1cccc(Cc2c[nH]cn2)c1)Nc1cc(Cl)cc(Cl)c1`, the inhibition in [10] was found to be 33%.

The compound `O=C(NCCc1ccccc1Cl)NCc1ccc(Cc2c[nH]cn2)cc1` registered a Ki on Histamine H3 receptor of 430 nM.

Take `O=C(Nc1ccccc1)OCc1ccc(Cc2c[nH]cn2)cc1`: the Ki on Histamine H3 receptor was found to be 37 nM.

Turning to `O=C(NCc1ccc(Cc2c[nH]cn2)cc1)Nc1cnccn1`, the inhibition in series [11] is under 50%.

At Histamine H3 receptor, `O=C(Nc1ccc(Cl)cc1)OCc1ccc(Cc2c[nH]cn2)cc1` displayed a Ki of 25 nM.

`O=C(NCc1ccc(Cc2c[nH]cn2)cc1)Nc1cc(Cl)nc(Cl)c1` registered a Ki on Histamine H3 receptor of 3 nM.
